“Also recorded” adds a separate entry of the source. Read-outs that look alike come from different tables or passages of the source.

One series has as its system E. amylovora. Put plainly: Plate diffusion assay in LB plates. In kind it is cell-based, Erwinia amylovora. The source says: Two assays were used for the antimicrobial test of 0617-T307 cell broth and metabolites. One is plate diffusion assay and the other one is microplate assay. LB plate was used for the plate diffusion assay of the antimicrobial activity of RejuAgro A containing fractions and cell broths against E. amylovora (Table 3).

The next series concerns Erwinia amylovora 273. Put plainly: In vitro plate assay of flash fractions. In kind it is cell-based. The note with it: E. amylovora 273 on 50% LB plate, 2 μL DMSO solution, one day. As for the experimental part: The generated fractions were applied for the subsequent plate assays. One mL of each fraction was picked up into a 1.5 mL test tube and vacuum dried by an Eppendorf vacuum concentrator. The dried sample was dissolved in 50 μL DMSO, of which 2 μL was used in the plate assay. Briefly, Erwinia amylovora 273 was streaked onto LB plate to grow at 28° C. incubator and single colony obtained after 24 h was inoculated into 5 mL LB media to allow an overnight growth at 28° C. shaker at 200 rpm. The bacteria were diluted 1:100 in sterile water, of which 225 μL was plated onto 50% LB plate (Tryptone, 5.0 g/L; Yeast extract, 2.5 g/L; NaCl, 5.0 g/L, Agar, 15 g/L). After dried in the biosafety cabinet for 10 mins, the DMSO solution of each fraction was then distributed to its pre-labeled section of the petri dish and allowed to dry for another 10 min. Along with the assay, DMSO and Kasugamycin were used as negative and positive controls, respectively. The plates were then incubated at 28° C. incubator and the inhibitory zone was checked one day later.
The generated fractions were applied for the subsequent plate assays. One mL of each fractions was picked up into a 1.5 mL test tube and vacuum dried by an Eppendorf vacuum concentrator. The dried sample was dissolved in 50 μL DMSO, of which 2 μL was used in the plate assay. […]

Series [1] concerns X. arboricola pv. Juglandis Xaj219. In words: microbe, parasite or virus in culture. In kind it is cell-based, Xanthomonas arboricola pv. Juglandis. The note with it: Xanthomonas arboricola, read-out: Diameter of the zone of inhibition.
In series [2] the test system is X. arboricola pv. Juglandis Xaj417. In words: microbe, parasite or virus in culture. In kind it is cell-based, Xanthomonas arboricola pv. Juglandis. The settings on record: Xanthomonas arboricola, read-out: Diameter of the zone of inhibition.
In the next series the test system is R. solanacearum K60. Put plainly: microbe, parasite or virus in culture. In kind it is cell-based. The note with it: Ralstonia solanacearum, K60, read-out: Diameter of the zone of inhibition.
For another series, the system named is R. solanacearum Pss. In words: microbe, parasite or virus in culture. In kind it is cell-based. The settings on record: Ralstonia solanacearum, read-out: Diameter of the zone of inhibition.
Another series is described as follows: Solubility in solvents. In kind it is physicochemical. How it is done:
Preparative HPLC (Prep-HPLC) purification of the fraction 3840 and 5054 lead to the discovery of 15 mg yellow colored compound RejuAgro A (Rt17.5) and 103.3 mg dark-green colored compound RejuAgro B, respectively. […] The structures of the two compounds have been investigated by High resolution mass spectrometry (HR-MS), infrared (IR), Ultraviolet (UV), 1D and 2D Nuclear magnetic resonance (NMR) as well as X-ray crystal structure analysis.

Series [3] relates to Clavibacter michiganensis subsp. michiganensis Cmm 0317. In words: Agar plate spot assay (inhibitory zone). In kind it is cell-based. The note with it: LB, 2 to 5 days.
The next series has as its system Erwinia amylovora 1189. In words: Agar plate spot assay (inhibitory zone). The settings on record: LB. In kind it is cell-based. The source says: (§1) The HPLC isolation and purification of the ethyl acetate extracts of acidified cell broth of Pseudomonas sp. 0617-T307 identified two antimicrobial compounds (Rt22.9 and Rt25.0) from flash fraction T5058 and one antimicrobial compound (Rt18.9) from flash fraction T7882. Two μL of DMSO, Rt18.9, Rt22.9 or Rt25.0 were spotted on agar plates respectively grown with different bacterial strains and the inhibitory zone was further examined (Table 8).

Series [4] concerns Pectobacterium atrosepticum 942. In words: Agar plate spot assay (inhibitory zone). The note with it: LB. In kind it is cell-based.
From the text: as §1

The subject of series [5] is Pectobacterium carotovorum subsp. brasiliensis 944. Put plainly: Agar plate spot assay (inhibitory zone). In kind it is cell-based. The settings on record: P. carotovorum subsp. brasiliensis 944, LB.
From the text: as §1

Series [6] deals with Pectobacterium parmentieri UPP163 936. Put plainly: Agar plate spot assay (inhibitory zone). In kind it is cell-based. The note with it: LB.
From the text: as §1

The test system of series [7] is Pseudomonas savastanoi pv. savastanoi 01-26. Put plainly: Agar plate spot assay (inhibitory zone). In kind it is cell-based. The note with it: P. savastanoi pv. savastanoi 01-26, LB.
From the text: as §1

The test system of series [8] is Pseudomonas syringae pv syringae 7046. Put plainly: Agar plate spot assay (inhibitory zone). In kind it is cell-based. The settings on record: P. syringae pv syringae 7046, LB.
From the text: as §1

The subject of series [9] is Pseudomonas syringae pv. lachrymans 1188-1. In words: Agar plate spot assay (inhibitory zone). In kind it is cell-based. The settings on record: P. syringae pv. lachrymans 1188-1, LB.
From the text: as §1

Series [10] deals with Pseudomonas syringae pv. tomato PT30. In words: Agar plate spot assay (inhibitory zone). In kind it is cell-based. The settings on record: P. syringae pv. tomato PT30, LB.
From the text: as §1

Series [11] has as its system Xanthomonas arboricola pv. Juglandis 219. In words: Agar plate spot assay (inhibitory zone). In kind it is cell-based. The settings on record: X. arboricola pv. Juglandis 219, NA.
From the text: as §1

The test system of series [12] is Xanthomonas arboricola pv. Juglandis 417. In words: Agar plate spot assay (inhibitory zone). The settings on record: X. arboricola pv. Juglandis 417, NA. In kind it is cell-based.
From the text: as §1

Series [13] concerns Xanthomonas axonopodis pv. citri N40-SO5. In words: Agar plate spot assay (inhibitory zone). In kind it is cell-based. The note with it: Xac N40-SO5, NA.
The test system of series [14] is Ralstonia solanacearum K60. In kind it is cell-based. The note with it: LB.
Series [15] has as its system Xanthomonas axonopodis pv. citri-Miami XC2002-00010. Put plainly: Agar plate spot assay (inhibitory zone). The note with it: Xac-Miami XC2002-00010, NA. In kind it is cell-based.
The subject of series [16] is C. michiganensis subsp. Michiganensis Cmm382. Put plainly: Agar plate diffusion assay. In kind it is cell-based, Clavibacter michiganensis subsp. michiganensis. The note with it: Clavibacter michiganensis, read-out: Diameter of the zone of inhibition.
Series [17] has as its system C. michiganensis subsp. Michiganensis Cmm0317. In words: Agar plate diffusion assay. In kind it is cell-based, Clavibacter michiganensis subsp. michiganensis. The note with it: Clavibacter michiganensis, read-out: Diameter of the zone of inhibition.
Series [18] concerns C. michiganensis subsp. Michiganensis Cmm0690. In words: Agar plate diffusion assay. The settings on record: Clavibacter michiganensis, read-out: Diameter of the zone of inhibition. In kind it is cell-based, Clavibacter michiganensis subsp. michiganensis.
For the next series, the system named is Venturia inaequalis. Put plainly: Antifungal assay on amended PDA plates. In kind it is cell-based. The note with it: 200-1000 μg/mL in PDA plate; day 14 (figure). As for the experimental part:
The fungus Venturia inaqualis that causes apple scab was maintained on PDA agar in the dark at room temperature (˜24° C.). A mixture of conidia and mycelia suspension (in 0.01 M PBS) was harvested from PDA (Potato dextrose agar). Ten μL the conidia and mycelia suspension were dropped onto biocontrol bacteria, RejuAgro A, or RejuAgro A amended plates. The control was PDA plates without the addition of the biocontrol bacteria or RejuAgro A or B. […]

Turning to `C[C@H]1O[C@H](O[C@H]2[C@H](O)[C@@H](O)[C@@H](O)[C@H](O)[C@@H]2O)[C@@H](N)C[C@@H]1NC(=N)C(=O)O` [Kasugamycin, reference compound], the “Diameter of the Inhibitory zone” value with E. amylovora (concentration not given) amounted to 1.3 cm. In addition, in the series on Erwinia amylovora 273, the “inhibitory zone / zone of clearance” value is on record as “did show a zone of inhibition”.

For the compound `CC1=C(C2=C(C)C(=O)C(=O)NC2=O)C(=O)NC(=O)C1=O` [RejuAgro B], the zone of inhibition at 2000 µg/mL in the series on E. amylovora (Erwinia amylovora, 2 mg/mL, read-out: Diameter of the Inhibitory zone) came to 0 mm; in series [1] it was 0 mm; in series [2] it was 0 mm; in the series on R. solanacearum K60 it was 4 mm; in the series on R. solanacearum Pss, 4 mm. Further, the “solubility in dimethyl sulfoxide (DMSO)” value in “Solubility in solvents” (DMSO) was “can be dissolved very well”. Besides, the “solubility in methanol and chloroform” value in the series “Solubility in solvents” (methanol, chloroform) is listed as “does not dissolve well”.

Regarding `CC(C)CC(=O)NC(Cc1c[nH]c2ccccc12)C(=O)O` (centres unmarked) [Rt22.9], the “Inhibitory zone (Yes/No)” value in series [3] (2 μL of 10 mg/mL spotted) was “Yes”; in the series on Erwinia amylovora 1189 (10 mg/mL), “No”; in [4] (10 mg/mL) it was “No”; in series [5] (10 mg/mL), “No”; in series [6] (10 mg/mL) it was “No”; in series [7] (10 mg/mL), “Yes”. Further, the “Inhibitory zone (Yes/No)” value in series [8] (10 mg/mL) was “Yes”; in [9] (10 mg/mL), “Yes”; in series [10] (10 mg/mL), “Yes”; in [11] (10 mg/mL), “No”; in series [12] (10 mg/mL) it was “No”; in series [13] (10 mg/mL), “No”. Further, the “Inhibitory zone (Yes/No)” value was “Yes” in series [14] (10 mg/mL) and “No” in series [15] (10 mg/mL).

Turning to `CCCCCC(=O)NC(Cc1c[nH]c2ccccc12)C(=O)O` (centres unmarked) [Rt25.0], the “Inhibitory zone (Yes/No)” value in [3] (2 μL of 5 mg/mL spotted) was “Yes”; with Erwinia amylovora 1189 (5 mg/mL), “No”; in series [4] (5 mg/mL), “No”; in series [5] (5 mg/mL), “Yes”; in series [6] (5 mg/mL), “No”; in series [7] (5 mg/mL) it was “Yes”. Besides, the “Inhibitory zone (Yes/No)” value is on record as “Yes” in [8] (5 mg/mL); “Yes” in [9] (5 mg/mL); “Yes” in series [10] (5 mg/mL); “Yes” in series [11] (5 mg/mL); “No” in [12] (5 mg/mL); “Yes” in series [13] (5 mg/mL). Besides, the “Inhibitory zone (Yes/No)” value in series [14] (5 mg/mL) and in [15] (5 mg/mL) was “Yes” throughout.

`CN[C@H](CC(C)C)C(=O)N[C@H]1C(=O)N[C@@H](CC(N)=O)C(=O)N[C@H]2C(=O)N[C@H]3C(=O)N[C@H](C(=O)N[C@H](C(=O)O)c4cc(O)cc(O)c4-c4cc3ccc4O)[C@H](O)c3ccc(c(Cl)c3)Oc3cc2cc(c3O[C@@H]2O[C@H](CO)[C@@H](O)[C@H](O)[C@H]2O[C@H]2C[C@](C)(N)[C@H](O)[C@H](C)O2)Oc2ccc(cc2Cl)[C@H]1O` [Vancomycin]: the zone of inhibition at 5000 µg/mL in [16], in [17] and in series [18] was 30 mm each time.

As to `O=S(=O)([O-])[O-].[Cu+2]` [copper sulfate, reference compound], the “growth of V. inaequalis on PDA plates” value with Venturia inaequalis is listed as “no inhibition; also recorded: can grow”.

Source of the values: US12089595B2, “Pseudomonas strains and their metabolites to control plant diseases” (T3 Bioscience, Inc., priority 2020, dated 2024).
